# Experimental data taken from patent US11332476B2, “Fms-like tyrosine kinase inhibitors” (3SM BIOTRON INC., priority 2018, dated 2022).
# Target: T1, FLT3 (Homo sapiens, UniProt P36888)
# T1 sequence (P36888 27-993): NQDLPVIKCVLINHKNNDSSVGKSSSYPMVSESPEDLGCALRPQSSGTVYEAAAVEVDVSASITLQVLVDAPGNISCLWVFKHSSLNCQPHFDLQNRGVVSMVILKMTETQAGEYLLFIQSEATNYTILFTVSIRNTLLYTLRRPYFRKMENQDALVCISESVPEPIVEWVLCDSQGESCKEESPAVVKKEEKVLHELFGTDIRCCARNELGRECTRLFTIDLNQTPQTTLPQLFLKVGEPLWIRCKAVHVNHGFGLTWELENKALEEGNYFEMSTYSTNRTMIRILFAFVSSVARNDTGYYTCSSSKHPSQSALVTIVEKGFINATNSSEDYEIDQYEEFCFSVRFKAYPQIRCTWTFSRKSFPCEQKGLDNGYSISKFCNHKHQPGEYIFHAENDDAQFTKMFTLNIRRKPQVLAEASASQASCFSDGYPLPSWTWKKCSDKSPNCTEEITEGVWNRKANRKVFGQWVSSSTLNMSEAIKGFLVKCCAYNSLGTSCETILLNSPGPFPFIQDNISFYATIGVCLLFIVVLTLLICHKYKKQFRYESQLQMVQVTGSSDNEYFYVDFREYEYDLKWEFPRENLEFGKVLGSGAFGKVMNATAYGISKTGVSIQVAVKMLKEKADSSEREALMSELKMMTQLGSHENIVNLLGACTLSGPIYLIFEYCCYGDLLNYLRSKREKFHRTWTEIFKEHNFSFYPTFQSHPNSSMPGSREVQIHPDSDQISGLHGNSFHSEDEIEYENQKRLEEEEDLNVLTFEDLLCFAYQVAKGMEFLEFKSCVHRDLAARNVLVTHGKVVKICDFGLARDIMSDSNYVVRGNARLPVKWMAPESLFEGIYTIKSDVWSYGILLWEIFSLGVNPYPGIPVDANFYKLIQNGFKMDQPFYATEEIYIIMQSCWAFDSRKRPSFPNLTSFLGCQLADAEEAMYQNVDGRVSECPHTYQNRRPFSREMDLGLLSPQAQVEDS
# Test: Inhibition of FLT3, 33P-ATP kinase assay with filter-binding detection
# Format: biochemical
# Settings: 33P-ATP 10 uM, 2 hours at room temperature, filter-binding method
# Description: Prepare indicated substrate in freshly prepared Base Reaction Buffer (20 mM Hepes (pH 7.5), 10 mM MgCl2, 1 mM EGTA, 0.02% Brij35, 0.02 mg/ml BSA, 0.1 mM Na3VO4, 2 mM DTT, 1% DMSO). Deliver any required cofactors to the substrate solution above. Deliver indicated kinase into the substrate solution and gently mix. The testing compounds in DMSO was added into the kinase reaction mixture by Acoustic technology (Echo550; nanoliter range) and incubated for 20 minutes at room temperature. Deliver 33P-ATP (specific activity […]) into the reaction mixture to initiate the reaction. Incubate kinase reaction for 2 hours at room temperature. Reactions are spotted onto P81 ion exchange paper. Detect kinase activity by filter-binding method.
# Inhibition of FLT3 with 4-Quinolone Derivatives
row,Compound,IC50 [µM]
1,"O=c1c2cc(F)ccc2sc2c(NCc3cccnc3)nc3ccccc3c12 [compound 7748, 10-fluoro-6-(pyridin-3-ylmethylamino)-12H-thiochromeno[2,3-c]quinolin-12-one]",> 1
2,"O=c1c2cc(F)ccc2sc2c(-n3cccc3)nc3ccccc3c12 [compound 7750, 10-fluoro-6-(1H-pyrrol-1-yl)-12H-thiochromeno[2,3-c]quinolin-12-one]",> 1
3,"CNCCNc1nc2ccccc2c2c(=O)c3cc(F)ccc3sc12 [compound 7752, 10-fluoro-6-(2-(methylamino)ethylamino)-12H-thiochromeno[2,3-c]quinolin-12-one]",< 0.051
4,"O=c1c2cc(F)ccc2sc2c(NCCCN3CCCC3)nc3ccccc3c12 [compound 7753, 10-fluoro-6-(3-(pyrrolidin-1-yl)propylamino)-12H-thiochromeno[2,3-c]quinolin-12-one]",> 1
5,"NCCNc1nc2ccccc2c2c(=O)c3cc(F)ccc3sc12 [compound 7754, 6-(2-aminoethylamino)-10-fluoro-12H-thiochromeno[2,3-c]quinolin-12-one]",< 0.051
6,"O=c1c2cc(F)ccc2sc2c(NCCN3CCCC3)nc3ccccc3c12 [compound 7755, 10-fluoro-6-(2-(pyrrolidin-1-yl)ethylamino)-12H-thiochromeno[2,3-c]quinolin-12-one]",0.501 to 1
7,"O=c1c2cc(F)ccc2sc2c(NCCN3CCOCC3)nc3ccccc3c12 [compound 7756, 10-fluoro-6-((2-morpholinoethyl)amino)-12H-thiochromeno[2,3-c]quinolin-12-one]",> 1
8,"CCN1CCN(c2nc3ccccc3c3c(=O)c4cc(F)ccc4sc23)CC1 [compound 7757, 6-(4-ethylpiperazin-1-yl)-10-fluoro-12H-thiochromeno[2,3-c]quinolin-12-one]",0.201 to 0.5
9,"O=c1c2cc(F)ccc2sc2c(N3CCN(Cc4ccccc4)CC3)nc3ccccc3c12 [compound 7758, 6-(4-benzylpiperazin-1-yl)-10-fluoro-12H-thiochromeno[2,3-c]quinolin-12-one]",> 1

# Second part, the molecule after the results:
row,IC50 [µM],Compound
1,> 1,"O=c1c2cc(F)ccc2sc2c(Nc3ccccn3)nc3ccccc3c12 [compound 7760, 10-fluoro-6-(pyridin-2-ylamino)-12H-thiochromeno[2,3-c]quinolin-12-one]"
2,> 1,"O=c1c2cc(F)ccc2sc2c(Nc3cccnc3)nc3ccccc3c12 [compound 7761, 10-fluoro-6-(pyridin-3-ylamino)-12H-thiochromeno[2,3-c]quinolin-12-one]"
3,> 1,"O=c1c2cc(F)ccc2sc2c(Nc3ccncc3)nc3ccccc3c12 [compound 7763, 10-fluoro-6-(pyridin-4-ylamino)-12H-thiochromeno[2,3-c]quinolin-12-one]"
4,> 1,"O=c1c2cc(F)ccc2sc2c(NCCNc3ccccn3)nc3ccccc3c12 [compound 7765, 10-fluoro-6-((2-(pyridin-2-ylamino)ethyl)amino)-12H-thiochromeno[2,3-c]quinolin-12-one]"
5,> 1,"O=c1c2cc(F)ccc2sc2c(-n3ccnc3)nc3ccccc3c12 [compound 7766, 10-fluoro-6-(1H-imidazol-1-yl)-12H-thiochromeno[2,3-c]quinolin-12-one]"
6,< 0.051,"NCCNc1nc2ccccc2c2c(=O)c3cc(Cl)ccc3sc12 [compound 7767, 6-(2-aminoethylamino)-10-cholor-12H-thiochromeno[2,3-c]quinolin-12-one]"
